Measured values as given in article PMC4335062, “Data-Driven Prediction and Design of bZIP Coiled-Coil Interactions” (PLoS Computational Biology, 2015).
pKd: −log10 of the molar value. Like-named read-outs stand apart in the source and are kept apart here. Where no end group is shown, it is not given here.

What was measured:
Assay in all cases: Direct-binding FRET assay
BACH1 = BACH1 (Homo sapiens, UniProt O14867); design: made in house
Procedure: (§1) The direct binding assay was performed manually in 384-well plates and is similar to a previously described assay. Wells were filled with 20 μL of 1 mM TCEP-HCl. A 4 μM stock of acceptor protein was made fresh in 1 mM TCEP-HCl, and 20 μL was titrated in 2-fold dilutions over the wells. […] The direct-binding FRET data were fit as previously described. Briefly, the Kd of the designed peptide homodimer was experimentally determined and used with previously determined target homodimer Kd values to determine the heterodimer Kd. The homodimer Kd values used for the human bZIPs were from; experiments done by […] et al. used the same protein constructs for the human bZIP proteins, the same buffer conditions, and the same assay. The fitting used a system of ordinary differential equations to describe the concentrations of homo and heterodimers formed by the donor (D) and acceptor (A) as a function of the heterodimer Kd. MATLAB was used to simulate the binding experiment for different Kd values, and the value that gave the best agreement between simulation and experiment was assigned. A minimum 15% change in the donor fluorescence upon titrating the acceptor peptide from 0 to 1000 nM was required for a fit to be attempted. If this minimum was not met, the interaction was classified as “NS” for no signal change. […] These interactions were marked “AS” to indicate anomalous signal. We attributed this to interactions between the peptides, the dyes and the walls of the assay plates at low concentrations. These curves could not be fit, given their unusual shapes at low concentrations of acceptor. For such curves, we removed the first five points and re-fit the data. […] One example of this is increasing concentrations of acceptor causing an increase in donor fluorescence.

BACH2 = BACH2 (Homo sapiens, UniProt Q9BYV9); design: made in house; details: Kd
Procedure: as §1

ATF6 = ATF6 (Homo sapiens, UniProt P18850); design: made in house
Procedure: as §1

MAF = MAF (Homo sapiens, UniProt O75444); design: made in house
Procedure: as §1

MAFB = MAFB (Homo sapiens, UniProt Q9Y5Q3); design: made in house; details: Kd, mean or single
Procedure: as §1

NFE2L1 = NFE2L1 (Homo sapiens, UniProt Q14494); design: made in house; details: Kd, mean or single
Procedure: as §1

BATF2 = target: T1, BATF2 (Homo sapiens, UniProt Q8N1L9); details: Kd
T1 construct: made in house
T1 sequence (Q8N1L9 17-80 limits assumed): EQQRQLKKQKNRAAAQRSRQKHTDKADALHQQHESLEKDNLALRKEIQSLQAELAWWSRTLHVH
Procedure, shortened: (§2)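 First, wells held 1 mM TCEP-HCl; next, acceptor protein was serially diluted 2-fold across them; then donor fluorescence was fitted to simulated dimer equilibria to assign heterodimer Kd. Anomalous curves ("AS") were refitted after removing the first five points.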

CREB3 = target: T2, CREB3 (Homo sapiens, UniProt O43889)
T2 construct: made in house
T2 sequence (O43889 150-213 limits assumed): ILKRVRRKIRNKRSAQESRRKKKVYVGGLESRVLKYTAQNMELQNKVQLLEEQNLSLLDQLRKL
Procedure, shortened: as §2

CREB3L1 = target: T3, CREB3L1 (Homo sapiens, UniProt Q96BA8)
T3 construct: made in house
T3 sequence (Q96BA8 290-353 limits assumed): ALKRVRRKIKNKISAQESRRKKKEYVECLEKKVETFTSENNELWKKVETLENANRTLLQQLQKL
Procedure, shortened: as §2

CREB3L3 = target: T4, CREB3L3 (Homo sapiens, UniProt Q68CJ9)
T4 construct: made in house
T4 sequence (Q68CJ9 243-306 limits assumed): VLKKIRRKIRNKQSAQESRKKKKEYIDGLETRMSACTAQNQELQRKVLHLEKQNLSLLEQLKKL
Procedure, shortened: as §2

NFE2L2 = target: T5, NFE2L2 (Homo sapiens, UniProt Q16236); details: Kd
T5 construct: made in house
T5 sequence (Q16236 497-560 limits assumed): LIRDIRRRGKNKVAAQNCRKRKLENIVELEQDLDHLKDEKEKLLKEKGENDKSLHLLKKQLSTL
Procedure, shortened: as §2

[1] = 4°C, C-terminal fluorescein design as donor, TAMRA target titrated
[2] = 4°C, C-terminal rhodamine design, mean or single
[3] = 4°C, N-terminal rhodamine design, mean or single
[4] = 23°C, C-terminal fluorescein design as donor, TAMRA target titrated
[5] = 23°C, C-terminal rhodamine design, mean or single
[6] = 23°C, N-terminal rhodamine design, mean or single
[7] = 37°C, C-terminal fluorescein design as donor, TAMRA target titrated
[8] = 37°C, N-terminal rhodamine design, mean or single
[9] = 37°C, C-terminal rhodamine design, mean or single
[10] = 4°C, C-terminal rhodamine design
[11] = 4°C, N-terminal rhodamine design
[12] = 23°C, C-terminal rhodamine design
[13] = 23°C, N-terminal rhodamine design
[14] = 37°C, C-terminal rhodamine design
[15] = 37°C, N-terminal rhodamine design

Chain of ATF6 (P18850 306-369 limits assumed): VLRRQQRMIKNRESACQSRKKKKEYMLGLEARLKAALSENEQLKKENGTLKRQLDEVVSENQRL
Chain of BACH2 (Q9BYV9 646-709 limits assumed): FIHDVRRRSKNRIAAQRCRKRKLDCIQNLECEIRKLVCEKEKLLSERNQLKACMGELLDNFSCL
Chain of BACH1 (O14867 557-620 limits assumed): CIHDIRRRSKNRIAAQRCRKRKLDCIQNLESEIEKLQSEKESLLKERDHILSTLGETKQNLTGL
Chain of MAF (O75444 288-351 limits assumed): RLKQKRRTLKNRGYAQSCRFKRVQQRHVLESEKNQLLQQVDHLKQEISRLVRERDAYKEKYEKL
Chain of NFE2L1 (Q14494 654-717 limits assumed): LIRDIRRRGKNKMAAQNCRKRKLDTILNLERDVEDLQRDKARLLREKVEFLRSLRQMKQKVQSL

With “SIAATLEKEEANLEKMNKKLAAEIESLLKEKDKLESVLNYHE [JUN-d1]” the pKd (BACH1) was < 6.00, the pKd (BACH1; [1]) was < 6.00 and the pKd (BACH1; [2]) was < 6.00. The pKd (BACH1; [3]) was < 6.00, the pKd (BACH1; [4]) was < 6.00 and the pKd (BACH1; [5]) was < 6.00. The pKd (BACH1; [6]) was < 6.00, the pKd (BACH1; [7]) was < 6.00 and the pKd (BACH1; [8]) was < 6.00. The pKd (BACH2; [1]) was < 6.00, the pKd (BACH2; [2]) was < 5.30 and the pKd (BACH2; [3]) was < 6.00. For the same sequence, the pKd (BACH2; [4]) was < 6.00, the pKd (BACH2; [5]) was < 6.00 and the pKd (BACH2; [6]) was < 6.00. For the same sequence, the pKd (BACH2; [7]) was < 6.00, the pKd (BACH2; [9]) was < 6.00 and the pKd (BACH2; [8]) was < 6.00. For the same sequence, the pKd (ATF6) was < 6.00, the pKd (ATF6; [1]) was < 6.00 and the pKd (ATF6; [2]) was < 6.00. For the same sequence, the pKd (ATF6; [3]) was < 6.00, the pKd (ATF6; [4]) was < 6.00 and the pKd (ATF6; [5]) was < 6.00. The pKd (ATF6; [6]) was < 6.00, the pKd (ATF6; [7]) was < 6.00 and the pKd (ATF6; [8]) was < 6.00. The pKd (MAF) was < 6.00, the pKd (MAF; [2]) was < 6.00 and the pKd (MAF; [3]) was < 6.00. For the same sequence, the pKd (MAF; [5]) was < 6.00, the pKd (MAF; [6]) was < 6.00 and the pKd (MAF; [8]) was < 6.00. The pKd (MAFB; [10]) was 6.49, the pKd (MAFB; [11]) was < 6.00 and the pKd (MAFB; [12]) was < 6.00. The pKd (MAFB; [13]) was < 6.00, the pKd (MAFB; [14]) was < 6.00 and the pKd (MAFB; [15]) was < 6.00. For the same sequence, the pKd (NFE2L1; [10]) was < 5.30, the pKd (NFE2L1; [11]) was < 6.00 and the pKd (NFE2L1; [12]) was < 5.30. For the same sequence, the pKd (NFE2L1; [13]) was < 6.00, the pKd (NFE2L1; [14]) was < 5.30 and the pKd (NFE2L1; [15]) was < 6.00. The pKd (BATF2; [1]) was < 6.00, the pKd (BATF2; [2]) was < 5.30 and the pKd (BATF2; [3]) was < 6.00. For the same sequence, the pKd (BATF2; [4]) was < 6.00, the pKd (BATF2; [5]) was < 6.00 and the pKd (BATF2; [6]) was < 6.00. The pKd (BATF2; [7]) was < 6.00, the pKd (BATF2; [9]) was < 6.00 and the pKd (BATF2; [8]) was < 6.00. The pKd (CREB3) was < 6.00, the pKd (CREB3; [2]) was < 6.00 and the pKd (CREB3; [3]) was < 6.00. The pKd (CREB3; [5]) was < 6.00, the pKd (CREB3; [6]) was < 6.00 and the pKd (CREB3; [8]) was < 6.00. The pKd (CREB3L1) was < 6.00, the pKd (CREB3L1; [2]) was < 6.00 and the pKd (CREB3L1; [3]) was < 6.00. The pKd (CREB3L1; [5]) was < 6.00, the pKd (CREB3L1; [6]) was < 6.00 and the pKd (CREB3L1; [8]) was < 6.00. The pKd (CREB3L3) was < 6.00, the pKd (CREB3L3; [1]) was < 6.00 and the pKd (CREB3L3; [2]) was < 6.00. For the same sequence, the pKd (CREB3L3; [3]) was < 6.00, the pKd (CREB3L3; [4]) was < 6.00 and the pKd (CREB3L3; [5]) was < 6.00. The pKd (CREB3L3; [6]) was < 6.00, the pKd (CREB3L3; [7]) was < 6.00 and the pKd (CREB3L3; [8]) was < 6.00. The pKd (NFE2L2; [1]) was < 6.00, the pKd (NFE2L2; [2]) was < 6.00 and the pKd (NFE2L2; [3]) was < 6.00. For the same sequence, the pKd (NFE2L2; [4]) was < 6.00, the pKd (NFE2L2; [5]) was < 6.00 and the pKd (NFE2L2; [6]) was < 6.00. For the same sequence, the pKd (NFE2L2; [7]) was < 6.00, the pKd (NFE2L2; [9]) was < 5.30 and the pKd (NFE2L2; [8]) was < 6.00.
